Data: ChEMBL document CHEMBL6078705 (Bioorg Med Chem, 2025)
Activity calls are given as the source filed them. The rule behind the calls is not given here.

Columns and labels:
[1] = Inhibition of bovine brain tubulin polymerization preincubated for 15 mins followed by GTP addition and measured after 20 mins by spectrophotometric analysis; design: species or system Bos taurus
[2] = target: Tubulin (Homo sapiens) (UniProt P68371+Q9H4B7+P0DPH7+P68366+Q13509+Q71U36+P04350+Q3ZCM7+P07437+P68363+Q9BQE3+Q6PEY2+Q13885+Q9BVA1+Q9BUF5); assay: Inhibition of [3H]Colchicine binding to tubulin (unknown origin) at 5 uM incubated for 10 mins in presence of GTP by Beckman scintillation counter relative to control; assay type: protein-complex assay
[3] = test system: MCF7; assay: Cytotoxicity against human MCF7 cells assessed as cell growth inhibition; assay type: functional
[4] = test system: MDA-MB-231; assay: Cytotoxicity against human MDA-MB-231 cells assessed as cell growth inhibition incubated for 96 hrs by SRB assay; assay type: functional
[5] = test system: Mus musculus; assay: Vascular disrupting activity in female BALB/c mouse implanted with orthotropic 4T1-Luc cells assessed as reduction in bioluminescence imaging signal at 20 mg/kg, ip measured at 4 hrs by imaging analysis; assay type: functional, organism-based
[6] = test system: Mus musculus; assay: Vascular disrupting activity in female BALB/c mouse implanted with orthotropic 4T1-Luc cells assessed as reduction in bioluminescence imaging signal at 20 mg/kg, ip measured at 24 hrs by imaging analysis relative to control; assay type: functional; design: scale not given: the % may be the effect or the level left
[7] = test system: Mus musculus; assay: Vascular disrupting activity in female BALB/c mouse implanted with orthotropic 4T1-Luc cells assessed as reduction in bioluminescence imaging signal at 50 mg/kg, ip measured at 4 hrs by imaging analysis relative to control; assay type: functional; design: scale not given: the % may be the effect or the level left
[8] = Toxicity in female BALB/c mouse implanted with orthotropic 4T1-Luc cells assessed as animal death at >50 mg/kg, ip measured within 24 hrs; assay type: organism-based; conditions: in vivo
[9] = Toxicity in female syngenic BALB/c mouse implanted with orthotropic RENCA-Luc cells assessed as animal death at 50 to 100 mg/kg, ip measured after 24 hrs; assay type: organism-based; conditions: in vivo, dose 50-100 mg/kg
[10] = test system: Mus musculus; assay: Vascular disrupting agent in female syngenic BALB/c mouse implanted with orthotropic RENCA-Luc cells assessed as reduction in bioluminescence imaging signal at 50 mg/kg, ip measured at 4 hrs by imaging analysis relative to control; assay type: functional; design: scale not given: the % may be the effect or the level left
[11] = test system: Mus musculus; assay: Vascular disrupting agent in female syngenic BALB/c mouse implanted with orthotropic RENCA-Luc cells assessed as reduction in bioluminescence imaging signal at 50 mg/kg, ip measured at 24 hrs by imaging analysis; assay type: functional, organism-based
[12] = test system: Mus musculus; assay: Vascular disrupting agent in female syngenic BALB/c mouse implanted with orthotropic RENCA-Luc cells assessed as reduction in bioluminescence imaging signal at 100 mg/kg, ip measured at 4 hrs by imaging analysis relative to control; assay type: functional; design: scale not given: the % may be the effect or the level left
[13] = test system: Mus musculus; assay: Vascular disrupting agent in female syngenic BALB/c mouse implanted with orthotropic RENCA-Luc cells assessed as reduction in bioluminescence imaging signal at 100 mg/kg, ip measured at 24 hrs by imaging analysis; assay type: functional, organism-based

Row | inhibition [2] [%] | Structure (SMILES) | IC50 [1] [nM] | GI50 [3] [nM] | GI50 [4] [nM] | also measured
1 | 25 | COc1ccc2c(C(=O)c3cccc(F)c3)c(-c3ccc(OC)c(O)c3)[nH]c2c1 | 1600 | 2500 | 7110 | –
2 | 33 | COc1cccc(C(=O)c2c(-c3ccc(OC)c(O)c3)[nH]c3cc(OC)ccc23)c1 | 4200 | 490 | 537 | –
3 | – | COc1ccc(/C=C\c2cc(OC)c(OC)c(OC)c2)cc1O [COMBRETASTATIN A4] | 910 | 9.5 | 1.7 | –
4 | – | COc1ccc(-c2[nH]c3c(C)c(C)ccc3c2C(=O)c2cc(OC)c(OC)c(OC)c2)cc1O | > 20000 | > 5000 | – | –
5 | 80 | COc1ccc2c(C(=O)c3cc(Cl)cc(Cl)c3)c(-c3ccc(OC)c(O)c3)[nH]c2c1 | 740 | 240 | 133 | –
6 | 69 | COc1ccc2c(C(=O)c3cccc(Cl)c3)c(-c3ccc(OC)c(O)c3)[nH]c2c1 | 450 | 470 | 319 | –
7 | – | COc1ccc2c(C(=O)c3c(F)c(F)c(F)c(F)c3F)c(-c3ccc(OC)c(O)c3)[nH]c2c1 | > 20000 | > 5000 | – | –
8 | – | COc1ccc(-c2[nH]c3c(O)c(OC)ccc3c2C(=O)c2cc(OC)c(OC)c(OC)c2)cc1 | 860 | 6 | 170 | –
9 | – | COc1ccc(-c2[nH]c3cc(OC)c(OC)c(OC)c3c2C(=O)c2cc(OC)c(OC)c(OC)c2)cc1 | > 5000 | 1500 | – | –
10 | – | COc1ccc(-c2[nH]c3c(OC)c(OC)ccc3c2C(=O)c2cc(OC)c(OC)c(OC)c2)cc1O | 760 | 3.5 | 14 | –
11 | – | COc1ccc(-c2[nH]c3c(OP(=O)([O-])[O-])c(OC)ccc3c2C(=O)c2cc(OC)c(OC)c(OC)c2)cc1OC.[Na+].[Na+] | – | – | – | Activity [5]: inactive; Activity [6]: 50%; Activity [7]: 95%; Activity [8]: Toxic
12 | – | COc1ccc(-c2[nH]c3c(OC)c(OC)ccc3c2C(=O)c2cc(OC)c(OC)c(OC)c2)cc1OP(=O)([O-])[O-].[Na+].[Na+] | – | – | – | Activity [9]: Non-toxic; Activity [10]: 15%; Activity [11]: Active; Little Change Observed Relative To 4 Hrs Compound Treatment; Activity [12]: 91%; Activity [13]: Active; Slight Recovery Observed
13 | – | COc1cccc(-c2[nH]c3cc(OC)c(OC)c(OC)c3c2C(=O)c2cc(OC)c(OC)c(OC)c2)c1 | > 5000 | > 5000 | – | –
14 | 50 | COc1ccc2c(C(=O)c3cc(F)cc(F)c3)c(-c3ccc(OC)c(O)c3)[nH]c2c1 | 820 | 1500 | 3170 | –
15 | – | COc1ccc(-c2[nH]c3c(OC)c(OC)c(OC)cc3c2C(=O)c2cc(OC)c(OC)c(OC)c2)cc1O | > 20000 | > 5000 | – | –

Row | Structure (SMILES) | inhibition [2] [%] | IC50 [1] [nM] | GI50 [3] [nM] | GI50 [4] [nM] | also measured
16 | COc1ccc2c(C(=O)c3cc(OC)c(OC)c(OC)c3)c(-c3ccc(OC)c(Br)c3)[nH]c2c1 | 34 | 1200 | 413 | 483 | –
17 | COc1ccc2c(C(=O)c3cc(OC)c(OC)c(OC)c3)c(-c3ccc(OC)c([N+](=O)[O-])c3)[nH]c2c1 | 24 | 770 | 120 | 275 | –
18 | COc1ccccc1-c1[nH]c2cc(OC)c(OC)c(OC)c2c1C(=O)c1cc(OC)c(OC)c(OC)c1 | 70 | 920 | 85 | 6980 | –
19 | COc1ccc2c(C(=O)c3cc(OC)c(OC)c(OC)c3)c(-c3ccc(OC)c(N)c3)[nH]c2c1 | 65 | 430 | 20 | 36.9 | –
